Measurements reported in patent US20240285583A1, “PHARMACEUTICAL COMPOSITION COMPRISING 1-(3-CYANO-1-ISOPROPYL-INDOL-5-YL)PYRAZOLE-4-CARBOXYLIC ACID” (LG CHEM, LTD., priority 2021, published 2024).

How the values were obtained:
gout patient group [1] = assay: Phase 2 clinical trial (NCT03934099): blood uric acid concentration in gout patients; format: in vivo, human
Method: (§1) A phase 2 clinical trial was conducted to analyze the dosage, TEAEs, and the like when the compound of Formula 1 (1-(3-cyano-1-isopropyl-indol-5-yl)pyrazol-4-carboxylic acid; compound of Example 1) is administered to a gout patient group.
• 1. Written informed consent (signed and dated) provided voluntarily prior to the start of the study. • 2. Male or female aged from 18 to 75 • 3. History or experience of hyperuricemia and gout in accordance with the criteria of the American College of Rheumatology. • 4. Self-reported history of 2 or more gout flare within 12 months prior to screening visit (Visit 1). • 5. Blood uric acid (sUA) levels at Visit 1 of 6.0 mg/dL or more in subjects who were receiving urate lower therapy (ULT) with allopurinol, febuxostat, probenecid, or lesinurad; and SUA levels at Visit 1 of 8.0 mg/dL or more and 12.0 mg/dL or less in subjects who had no history of receiving the ULT or were not receiving the ULT at visit 1. • 6. SUA levels of 8.0 mg/dL or more and 12.0 mg/dL or less at Visit 3. • 7. Body mass index of 42 kg/m^2 or less at screening visit (Visit 1). • 8. Estimated glomerular filtration rate (eGFR) of 60 mL/min/1.73 m^2 or more at screening visit (Visit 1). • 9. Subjects of childbearing potential with a negative pregnancy test result at screening visit (Visit 1). […]

gout patient group [2] = assay: Phase 2 clinical trial (NCT03934099): analysis of TEAEs; format: in vivo, human
Method: as §1
Selected patients gave written informed consent according to institutional and study procedures. After screening and wash-out processes (days 26 to 33 pre-dose), a total of 156 patients were finally enrolled, and each patient was randomly assigned to 5 groups of 50 mg, 100 mg and 200 mg dosing groups of the compound of Example 1, a placebo group, and a febuxostat group. Patients in each group self-administered 1 tablet of a combination drug (colchicine, 0.6 mg/day) for the prevention of gout flare along with the assigned investigational drug (50 mg, 100 mg and 200 mg doses of the compound of Example 1, placebo, and 40 mg of febuxostat group) orally, once every morning, at about the same time each day, with water, regardless of food.
The drug was administered for 84 days by setting the first dosing day of the drug as day 1, and basic tests, blood uric acid concentration and the like were measured at clinic visits on 14 days (week 2), 28 days (week 4), 56 days (week 8), and 84 days (week 12) during the dosing period to determine whether TEAEs occurred. After the end of drug administration, a safety follow-up was performed for an additional 2 weeks (98 days, week 14).
Among all patient groups participating in the clinical trial, although the administration was stopped for 3 patients due to headache, gout flare in the left ankle, and liver dysfunction in the 100 mg dosing group of Example 1 and for 1 patient due to an increase in hepatic enzyme in the 200 mg dosing group, no significant treatment emergency adverse event (TEAE) was found in the remaining patient groups.

gout patients = details: patient group receiving the drug, previous results; cited from earlier work

| Structure (SMILES) | blood uric acid lowering effect compared to febuxostat (gout patient group [1]; 50 mg, 100 mg, 200 mg vs febuxostat 40 mg) | blood uric acid concentration kept within the normal range during the dosing period (gout patient group [1]; doses of 50 mg, 100 mg and 200 mg, reached within 2 weeks) [mg/dL] | incidence of TEAEs (gout patient group [2]; 50 mg, 100 mg and 200 mg groups, vs placebo and febuxostat groups) | patients for whom administration was stopped (gout patient group [2]; 100 mg dosing group, headache, gout flare in the left ankle, liver dysfunction) [patients] | patients for whom administration was stopped (gout patient group [2]; 200 mg dosing group, increase in hepatic enzyme) [patient] | adverse cardiovascular TEAEs (gout patient group [2]; all dosing groups) | patients with a blood uric acid concentration of less than 6 mg/dL (gout patients) |
| --- | --- | --- | --- | --- | --- | --- | --- |
| CC(C)n1cc(C#N)c2cc(-n3cc(C(=O)O)cn3)ccc21 [Example 1, 1-(3-cyano-1-isopropyl-indol-5-yl)pyrazole-4-carboxylic acid] | equivalent or higher blood uric acid lowering effect | < 6.0 | did not show a significant difference in the incidence of TEAEs | 3 | 1 | no reports of adverse cardiovascular TEAEs having a causal relationship |  |
| Oc1ncnc2[nH]ncc12 [allopurinol] |  |  |  |  |  |  | about 40% |
